The values below come from paper PMC4878443 (Journal of medicinal chemistry, 2015).

The target of one assay is human LSD1 (Homo sapiens, UniProt O60341). Briefly: LSD1 inhibition, mass spectrometry. The class given is biochemical.
Assay [1] concerns normal fibroblast cells WI-38. Put plainly: Cell growth inhibition. The class given is cell-based.

As for `Cc1ccc(-c2ncc(O)cc2-c2ccc(C#N)cc2)cc1` [Compound 44], the “LSD1 inhibition in words” value on human LSD1 was “Loss of activity”.
As for `c1ccc(-c2cc(OCC3CCNCC3)cnc2-c2ccccc2)cc1` [Compound 11], the “LSD1 inhibition in words” value on human LSD1 was “inactive”.
Same read-out and setting: with `Cc1ccc(-c2ncc(OCC3CCNCC3)cc2-c2ccc(CO)cc2)cc1` [Compound 30] the entry was “completely lose inhibitory activities”.
`C#Cc1ccc(-c2cc(OCC3CCNCC3)cnc2-c2ccc(C)cc2)cc1` [Compound 28]: the “LSD1 inhibition in words” value at human LSD1 was “activity loss”. Besides, the “fold less active against LSD1 than compound 17” value on human LSD1 (Ki ratio to compound 17) is > 1,700 fold.
On to `c1ccc(-c2ccc(OCC3CCNCC3)cn2)cc1` [Compound 3], for which the “LSD1 inhibition in words” value on human LSD1 was “inactive”.
The same measure, in the same setting: under `Cc1ccc(-c2ncc(OCC3CCNCC3)cc2-c2ccc(CN3CCCCC3)cc2)cc1` [Compound 36] stands “almost inactive”; under `Cc1ccc(-c2ncc(OCC3CCNCC3)cc2-c2ccc(C(=O)O)cc2)cc1` [Compound 29], “completely lose inhibitory activities”.
The same measure, in the same setting: under `Cc1ccc(-c2ncc(OCc3ccccc3)cc2-c2ccc(C#N)cc2)cc1` [Compound 45] stands “Loss of activity”.
Regarding `CN1CCN(C(=O)CN[C@H]2C[C@@H]2c2ccc(-c3ccc(F)nc3)cc2)CC1` [Compound S2], the “activity against growth of normal cells in words” value in assay [1] was “inactive”.
